These results are taken from PMC6219514, “Structural basis of Gip1 for cytosolic sequestration of G protein in wide-range chemotaxis” (Nature Communications, 2018).

The target of the experiment is T1, GFP-Flag-tagged Gip1 (Gip1-GFPF) in complex with G proteins (Dictyostelium discoideum, UniProt Q55BQ2).
T1 construct: gene DDB_G0271086; full-length Gip1 (1-310) with GFP-Flag tag, expressed in Dictyostelium cells, on anti-Flag beads with co-purified G proteins; Gγ geranylgeranylated at Cys66
As to the kind of experiment: competitive dissociation of G proteins from bead-bound Gip1, immunoblot. It is filed as biochemical. As to conditions: CHAPS buffer pH 7.5, 4 °C, 1 h, 3.5% methanol. For orientation: In western blotting, separated proteins are transferred to a membrane and probed.

T1 sequence (Q55BQ2 entry or part of it, one chain of several): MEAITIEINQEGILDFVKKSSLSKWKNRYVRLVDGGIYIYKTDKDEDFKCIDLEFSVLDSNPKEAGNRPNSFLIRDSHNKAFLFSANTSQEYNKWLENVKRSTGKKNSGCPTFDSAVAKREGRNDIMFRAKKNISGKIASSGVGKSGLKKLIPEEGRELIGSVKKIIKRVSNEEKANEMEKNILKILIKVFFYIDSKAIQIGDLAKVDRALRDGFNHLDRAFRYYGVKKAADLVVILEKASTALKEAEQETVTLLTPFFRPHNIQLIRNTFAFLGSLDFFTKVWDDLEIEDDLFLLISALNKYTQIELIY

For `CC(C)=CCC/C(C)=C/CC/C(C)=C/CC/C(C)=C/COP(=O)(O)OP(=O)(O)O` [GG-pyroP, geranylgeranyl pyrophosphate], under “0-100 µM, competitive with geranylgeranylated Gγ”, the relative band intensity entry is given as “the complex formation was competitively inhibited by the addition of geranylgeranyl pyrophosphate”.

Regarding `CC(C)=CCC/C(C)=C/CC/C(C)=C/COP(=O)(O)OP(=O)(O)O` [farnesyl pyrophosphate], for the setting “100 µM”, the relative band intensity entry is “Farnesyl pyrophosphate showed slight impairment of the Gip1–G protein complex”.
